Here are results for 10 compounds from patent publication EP0179386A2, “1,4-Dihydropyridine hydroxyamines, process for their preparation and their use as pharmaceutical agents” (BAYER AG, priority 1984, dated 1986).

One assay relates to normotonen Ratten. Briefly: Blood pressure before and after i.v. application in anaesthetised normotensive rats. It counts as in vivo. As to conditions: Rattus norvegicus, iv, 1 mg/kg i.v., read-out: BD: Blutdrucksenkung in % bei normotonen Ratten. How it is done: Die erfindungsgemäßen neuen Verbindungen werden Ratten mit einer Dosis von 1 mg/kg intravenös appliziert und der Blutdruck vor und nach der Applikation bestimmt.

The subject of assay [1] is Isoprenalin stimulierten Ratten. Briefly: Lowering of heart rate in rats stimulated with subcutaneous isoprenaline. In kind it is in vivo. As to conditions: anaesthetised rats, 1 mg/kg i.v., heart rate stimulated by subcutaneous isoprenaline. How it is done:
In einem zweiten Test wird die Herzfrequenz von Ratten durch subkutane Applikation von Isoprenalin stimuliert. Dann werden die erfindungsgemäßen Verbindungen appliziert (1 mg/kg i.v.) und 'der Effekt auf die Erniedrigung der Herzfrequenz gemessen.

For `CC1=C(C(=O)OCCNCC(O)COc2cccc3ccccc23)C(c2cccc([N+](=O)[O-])c2)C(C(=O)OC(C)C)=C(C)N1` (centres unmarked) [Beispiel 1], in the assay on normotonen Ratten, the inhibition in vivo at 1 mg/kg lay in the range of 20 to 30%. In addition, the “HR: Erniedrigung der Herzfrequenz in absoluten Zahlen bei Isoprenalin stimulierten Ratten (subkutane Applikation)” value (from here on “HR: Erniedrigung der Herzfrequenz”) in assay [1] was “↓↓ (40 < 65)”.
On to `COC(=O)C1=C(C)NC(C)=C(C(=O)OCCCCCNCC(O)COc2cccc3ccccc23)C1c1cccc([N+](=O)[O-])c1` (centres unmarked) [Beispiel 16], for which, in the assay on normotonen Ratten, the inhibition in vivo at 1 mg/kg lay within 10 to 20%. For the same compound, in assay [1], the “HR: Erniedrigung der Herzfrequenz” value is listed as “↓ (15 - < 40)”.
With `COC(=O)C1=C(C)NC(C)=C(C(=O)OCCOCCNCC(O)COc2cccc3ccccc23)C1c1cccc([N+](=O)[O-])c1` (centres unmarked) [Beispiel 20], the inhibition in vivo at 1 mg/kg in the assay on normotonen Ratten was in the range of 10 to 20%. Also, the “HR: Erniedrigung der Herzfrequenz” value in assay [1] is recorded as “↓↓ (40 < 65)”.
`COC(=O)C1=C(C)NC(C)=C(C(=O)OCCNCC(O)COc2ccc(CC(N)=O)cc2)C1c1cccc([N+](=O)[O-])c1` (centres unmarked) [Beispiel 25]: in the assay with normotonen Ratten, the inhibition in vivo at 1 mg/kg was 5 to 10%. Also, the “HR: Erniedrigung der Herzfrequenz” value in assay [1] is “↓ (15 - < 40)”.
For the compound `CC1=C(C(=O)OCCCNCC(O)COc2cccc3[nH]ccc23)C(c2cccc([N+](=O)[O-])c2)C(C(=O)OC(C)C)=C(C)N1` (centres unmarked) [Beispiel 26], the inhibition in vivo at 1 mg/kg with normotonen Ratten was in the range of 10 to 20%. Besides, in assay [1], the “HR: Erniedrigung der Herzfrequenz” value is listed as “↓↓↓ (65 < 100)”.
On to `CC1=C(C(=O)OCCOCCNCC(O)COc2cccc3ccccc23)C(c2cccc([N+](=O)[O-])c2)C(C(=O)OC(C)C)=C(C)N1` (centres unmarked) [Beispiel 30], for which the inhibition in vivo at 1 mg/kg with normotonen Ratten was in the range of 30 to 40%. The “HR: Erniedrigung der Herzfrequenz” value in assay [1] was “(↓) (10)”.
On the same counts, the results for `CC1=C(C(=O)OCCSCCNCC(O)COc2cccc3ccccc23)C(c2cccc([N+](=O)[O-])c2)C(C(=O)OC(C)C)=C(C)N1` (centres unmarked) [Beispiel 31] are 20 to 30% and “↓↓ (40 < 65)”.
Regarding `COC(=O)C1=C(C)NC(C)=C(C(=O)OCCN(C)CCCNCC(O)COc2cccc3ccccc23)C1c1cccc([N+](=O)[O-])c1` (centres unmarked) [Beispiel 32], the inhibition in vivo at 1 mg/kg in the assay on normotonen Ratten was 10 to 20%. In addition, the “HR: Erniedrigung der Herzfrequenz” value in assay [1] was “↓ (15 - < 40)”.
As for `COC(=O)C1=C(C)NC(C)=C(C(=O)OCCNCC(O)COc2cccc3ccccc23)C1c1cccc(Cl)c1` (centres unmarked) [Beispiel 68], in the assay with normotonen Ratten, the inhibition in vivo at 1 mg/kg lay in the range of 20 to 30%. Besides, the “HR: Erniedrigung der Herzfrequenz” value in assay [1] is “↓ (15 - < 40)”.
`COC(=O)C1=C(C)NC(C)=C(C(=O)OCCNCC(O)COc2cccc3ccccc23)C1c1ccccc1[N+](=O)[O-]` (centres unmarked) [Beispiel 69]: the inhibition in vivo at 1 mg/kg in the assay with normotonen Ratten is 10 to 20%. Also, the “HR: Erniedrigung der Herzfrequenz” value in assay [1] is on record as “↓ (15 - < 40)”.
